Laboratory results: patent US10189841B2, “Purinones as ubiquitin-specific protease 1 inhibitors” (Forma Therapeutics, Inc., priority 2015, dated 2019)

Molecular target: USP1 (construct USP1 (I-785, GG670, 671AA)/UAF1 (I-677)-Flag) (Homo sapiens (Human), UniProt O94782, G670A/G671A)
Test: Ubiquitin-Rhodamine 110 assay for USP1 activity
Assay type: biochemical
Conditions: USP1/UAF1 25 pM, Ub-Rh110 25 nM, 30 min preincubation
Method in brief: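 Two formats with the USP1/UAF1 complex and 25 nM ubiquitin-rhodamine 110 in pH 8.0 Tris buffer with calcium, glutathione and detergent. Single-point screening used 10 µM, 100 pM enzyme and 45 min. Inhibition was set against no-enzyme and DMSO wells.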

USP1 (construct USP1 (I-785, GG670, 671AA)/UAF1 (I-677)-Flag), sequence (O94782 whole entry G670A/G671A): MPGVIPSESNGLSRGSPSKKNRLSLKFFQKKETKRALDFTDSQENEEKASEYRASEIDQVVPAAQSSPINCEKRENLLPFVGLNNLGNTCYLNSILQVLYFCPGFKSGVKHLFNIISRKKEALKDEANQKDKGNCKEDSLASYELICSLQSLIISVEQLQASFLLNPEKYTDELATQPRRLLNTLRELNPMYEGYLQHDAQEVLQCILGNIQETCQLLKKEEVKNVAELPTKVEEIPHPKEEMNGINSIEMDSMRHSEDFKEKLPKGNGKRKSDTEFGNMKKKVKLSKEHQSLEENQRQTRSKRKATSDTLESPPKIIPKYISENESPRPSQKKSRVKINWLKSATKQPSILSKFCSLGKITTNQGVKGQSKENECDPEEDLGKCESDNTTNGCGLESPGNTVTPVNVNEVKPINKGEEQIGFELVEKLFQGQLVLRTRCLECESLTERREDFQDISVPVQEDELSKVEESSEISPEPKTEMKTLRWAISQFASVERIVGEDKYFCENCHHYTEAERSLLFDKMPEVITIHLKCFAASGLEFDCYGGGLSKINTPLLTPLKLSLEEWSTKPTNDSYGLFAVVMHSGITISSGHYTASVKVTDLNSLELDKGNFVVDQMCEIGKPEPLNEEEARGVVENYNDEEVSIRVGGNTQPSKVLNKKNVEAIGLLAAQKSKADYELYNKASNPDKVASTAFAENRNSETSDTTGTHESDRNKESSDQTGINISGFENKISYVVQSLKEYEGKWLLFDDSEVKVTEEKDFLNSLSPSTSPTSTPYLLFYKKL
USP1 (construct USP1 (I-785, GG670, 671AA)/UAF1 (I-677)-Flag), sequence (Q8TAF3 whole entry partner): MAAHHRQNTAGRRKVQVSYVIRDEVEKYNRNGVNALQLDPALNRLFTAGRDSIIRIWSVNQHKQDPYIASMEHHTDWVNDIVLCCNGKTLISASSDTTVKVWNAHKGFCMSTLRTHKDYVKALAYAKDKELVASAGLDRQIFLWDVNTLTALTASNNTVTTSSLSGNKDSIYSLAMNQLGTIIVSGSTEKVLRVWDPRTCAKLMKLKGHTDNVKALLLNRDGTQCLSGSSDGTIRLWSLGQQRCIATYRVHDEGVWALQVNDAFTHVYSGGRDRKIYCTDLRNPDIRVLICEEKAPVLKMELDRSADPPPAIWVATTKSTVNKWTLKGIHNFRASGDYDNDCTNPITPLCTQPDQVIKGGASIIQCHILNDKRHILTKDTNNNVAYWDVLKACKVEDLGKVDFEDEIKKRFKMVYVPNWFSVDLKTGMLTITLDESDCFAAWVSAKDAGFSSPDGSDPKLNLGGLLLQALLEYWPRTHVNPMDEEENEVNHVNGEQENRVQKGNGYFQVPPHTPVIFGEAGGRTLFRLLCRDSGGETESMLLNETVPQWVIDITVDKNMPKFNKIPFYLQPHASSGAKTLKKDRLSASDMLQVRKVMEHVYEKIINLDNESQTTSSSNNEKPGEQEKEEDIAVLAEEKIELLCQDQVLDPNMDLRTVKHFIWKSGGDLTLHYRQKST

Compound | IC50 [nM]
CC(C)c1ccccc1-c1ncc2[nH]c(=O)n([C@@H](C)c3ccccc3)c2n1 [Compound I-156, (S)-2-(2-isopropylphenyl)-9-(1-phenylethyl)-7,9-dihydro-8H-purin-8-one] | > 2000
CC(C)c1ccccc1-c1ncc2[nH]c(=O)n([C@@H](C)c3ccc(-n4cccn4)cc3)c2n1 [Compound I-157, (S)-9-(1-(4-(1H-pyrazol-1-yl)phenyl)ethyl)-2-(2-isopropylphenyl)-7,9-dihydro-8H-purin-8-one] | 50 to 200
CC(C)c1ccccc1-c1ncc2[nH]c(=O)n([C@@H]3CCOc4ccccc43)c2n1 [Compound I-159, (R)-9-(chroman-4-yl)-2-(2-isopropylphenyl)-7,9-dihydro-8H-purin-8-one] | 200 to 2000
CC(C)c1ccccc1-c1ncc2[nH]c(=O)n(Cc3ccc(-c4nccn4C)cc3)c2n1 [Compound I-160, 2-(2-isopropylphenyl)-9-(4-(1-methyl-1H-imidazol-2-yl)benzyl)-7,9-dihydro-8H-purin-8-one] | < 50
CC(C)c1ccccc1-c1ncc2[nH]c(=O)n(CCC3CCN(c4cccnc4)CC3)c2n1 [Compound I-161, 2-(2-isopropylphenyl)-9-(2-(1-(pyridin-3-yl)piperidin-4-yl)ethyl)-7,9-dihydro-8H-purin-8-one] | 200 to 2000
CC(C)c1ccccc1-c1ncc2[nH]c(=O)n(Cc3ccc(-n4cccn4)cc3Cl)c2n1 [Compound I-162, 9-(2-chloro-4-(1H-pyrazol-1-yl)benzyl)-2-(2-isopropylphenyl)-7,9-dihydro-8H-purin-8-one] | 50 to 200
CC(C)c1ccccc1-c1ncc2[nH]c(=O)n([C@@H]3CC[C@H]3c3ccc(-n4cccn4)cc3)c2n1 [Compound I-163, 9-((1R,2S)-2-(4-(1H-pyrazol-1-yl)phenyl)cyclobutyl)-2-(2-isopropylphenyl)-7,9-dihydro-8H-purin-8-one] | < 50
CC(C)c1ccccc1-c1ncc2[nH]c(=O)n([C@H]3CC[C@@H]3c3ccc(-n4cccn4)cc3)c2n1 [Compound I-164, 9-((1S,2R)-2-(4-(1H-pyrazol-1-yl)phenyl)cyclobutyl)-2-(2-isopropylphenyl)-7,9-dihydro-8H-purin-8-one] | 200 to 2000
CC(C)c1c(F)cccc1-c1ncc2[nH]c(=O)n(Cc3ccc(-n4ccnn4)cc3)c2n1 [Compound I-165, 9-(4-(1H-1,2,3-triazol-1-yl)benzyl)-2-(3-fluoro-2-isopropylphenyl)-7,9-dihydro-8H-purin-8-one] | 50 to 200
CC(C)c1c(F)cccc1-c1ncc2[nH]c(=O)n(Cc3ccc(-n4nccn4)cc3)c2n1 [Compound I-166, 9-(4-(2H-1,2,3-triazol-2-yl)benzyl)-2-(3-fluoro-2-isopropylphenyl)-7,9-dihydro-8H-purin-8-one] | 50 to 200
CC(C)c1ccccc1-c1ncc2[nH]c(=O)n(Cc3ccc(-n4cccn4)cc3F)c2n1 [Compound I-167, 9-(2-fluoro-4-(1H-pyrazol-1-yl)benzyl)-2-(2-isopropylphenyl)-7,9-dihydro-8H-purin-8-one] | 200 to 2000
Cc1nnn(-c2ccc(Cn3c(=O)[nH]c4cnc(-c5ccccc5C(C)C)nc43)cc2)n1 [Compound I-168, 2-(2-isopropylphenyl)-9-(4-(5-methyl-2H-tetrazol-2-yl)benzyl)-7,9-dihydro-8H-purin-8-one] | 50 to 200
CC(C)c1ccccc1-c1ncc2[nH]c(=O)n(Cc3ccc(-c4ncco4)cc3)c2n1 [Compound I-169, 2-(2-isopropylphenyl)-9-(4-(oxazol-2-yl)benzyl)-7,9-dihydro-8H-purin-8-one] | < 50
CC(C)c1c(F)cccc1-c1ncc2[nH]c(=O)n(Cc3ccc(-n4cccn4)cc3)c2n1 [Compound I-170, 9-(4-(1H-pyrazol-1-yl)benzyl)-2-(3-fluoro-2-isopropylphenyl)-7,9-dihydro-8H-purin-8-one] | < 50
CC(C)c1ccccc1-c1ncc2[nH]c(=O)n(Cc3ccccc3)c2n1 [Compound I-171, 9-benzyl-2-(2-isopropylphenyl)-7,9-dihydro-8H-purin-8-one] | 50 to 200
CC(C)c1c(F)cccc1-c1ncc2[nH]c(=O)n(Cc3ccc(-c4nccn4C)cc3)c2n1 [Compound I-172, 2-(3-fluoro-2-isopropylphenyl)-9-(4-(1-methyl-1H-imidazol-2-yl)benzyl)-7,9-dihydro-8H-purin-8-one] | < 50
CC(C)c1ccccc1-c1ncc2[nH]c(=O)n(Cc3ccc(-n4ccc(N5CCN(C)CC5)n4)cc3)c2n1 [Compound I-173, 2-(2-isopropylphenyl)-9-(4-(3-(4-methylpiperazin-1-yl)-1H-pyrazol-1-yl)benzyl)-7,9-dihydro-8H-purin-8-one] | < 50
CC(C)c1ccccc1-c1ncc2[nH]c(=O)n(Cc3ccc(-n4ccc(N5CCOCC5)n4)cc3)c2n1 [Compound I-174, 2-(2-isopropylphenyl)-9-(4-(3-morpholino-1H-pyrazol-1-yl)benzyl)-7,9-dihydro-8H-purin-8-one] | < 50

Compound | IC50 [nM]
Cc1cn(-c2ccc(Cn3c(=O)[nH]c4cnc(-c5ccccc5C(C)C)nc43)cc2)nn1 [Compound I-175, 2-(2-isopropylphenyl)-9-(4-(4-methyl-1H-1,2,3-triazol-1-yl)benzyl)-7,9-dihydro-8H-purin-8-one] | < 50
CC(C)c1ccccc1-c1ncc2[nH]c(=O)n(Cc3ccc(-c4ncc(F)n4C)cc3)c2n1 [Compound I-176, 9-(4-(5-fluoro-1-methyl-1H-imidazol-2-yl)benzyl)-2-(2-isopropylphenyl)-7,9-dihydro-8H-purin-8-one] | < 50
CC(C)c1ccccc1-c1ncc2[nH]c(=O)n(Cc3ccc(-n4cccn4)c(F)c3)c2n1 [Compound I-177, 9-(3-fluoro-4-(1H-pyrazol-1-yl)benzyl)-2-(2-isopropylphenyl)-7,9-dihydro-8H-purin-8-one] | < 50
CC(C)c1ccccc1-c1ncc2[nH]c(=O)n([C@H](C)c3ccc(F)cc3)c2n1 [Compound I-178, (R)-9-(1-(4-fluorophenyl)ethyl)-2-(2-isopropylphenyl)-7,9-dihydro-8H-purin-8-one] | < 50
CC(C)c1ccccc1-c1ncc2[nH]c(=O)n([C@@H](C)c3ccc(F)cc3)c2n1 [Compound I-179, (S)-9-(1-(4-fluorophenyl)ethyl)-2-(2-isopropylphenyl)-7,9-dihydro-8H-purin-8-one] | 50 to 200
CC(C)c1ccccc1-c1ncc2[nH]c(=O)n([C@H](CO)c3ccc(F)cc3)c2n1 [Compound I-180, (S)-9-(1-(4-fluorophenyl)-2-hydroxyethyl)-2-(2-isopropylphenyl)-7,9-dihydro-8H-purin-8-one] | 50 to 200
CC(C)c1ccccc1-c1ncc2[nH]c(=O)n([C@H](CO)c3ccccc3)c2n1 [Compound I-181, (S)-9-(2-hydroxy-1-phenylethyl)-2-(2-isopropylphenyl)-7,9-dihydro-8H-purin-8-one] | 200 to 2000
CC(C)c1ccccc1-c1ncc2[nH]c(=O)n(Cc3ccc4c(c3)ncn4C)c2n1 [Compound I-182, 2-(2-isopropylphenyl)-9-((1-methyl-1H-benzo[d]imidazol-5-yl)methyl)-7,9-dihydro-8H-purin-8-one] | > 2000
CC(C)c1ccccc1-c1ncc2[nH]c(=O)n(Cc3ccc(S(C)(=O)=O)cc3)c2n1 [Compound I-183, 2-(2-isopropylphenyl)-9-(4-(methylsulfonyl)benzyl)-7,9-dihydro-8H-purin-8-one] | > 2000
Cc1ccnn1-c1ccc(Cn2c(=O)[nH]c3cnc(-c4ccccc4C(C)C)nc32)cc1 [Compound I-184, 2-(2-isopropylphenyl)-9-(4-(5-methyl-1H-pyrazol-1-yl)benzyl)-7,9-dihydro-8H-purin-8-one] | < 50
Cc1cnnn1-c1ccc(Cn2c(=O)[nH]c3cnc(-c4ccccc4C(C)C)nc32)cc1 [Compound I-185, 2-(2-isopropylphenyl)-9-(4-(5-methyl-1H-1,2,3-triazol-1-yl)benzyl)-7,9-dihydro-8H-purin-8-one] | < 50
CC(C)c1ccccc1-c1ncc2[nH]c(=O)n(Cc3ccc4c(c3)CN(C)C4=O)c2n1 [Compound I-186, 2-(2-isopropylphenyl)-9-((2-methyl-1-oxoisoindolin-5-yl)methyl)-7,9-dihydro-8H-purin-8-one] | 50 to 200
CC(C)c1ccccc1-c1ncc2[nH]c(=O)n(Cc3ccc4c(c3)CCN(C)C4=O)c2n1 [Compound I-187, 6-((2-(2-isopropylphenyl)-8-oxo-7,8-dihydro-9H-purin-9-yl)methyl)-2-methyl-3,4-dihydroisoquinolin-1(2H)-one] | < 50
Cc1nc(-c2ccc(Cn3c(=O)[nH]c4cnc(-c5cccc(F)c5C(C)C)nc43)cc2)no1 [Compound I-188, 2-(3-fluoro-2-isopropylphenyl)-9-(4-(5-methyl-1,2,4-oxadiazol-3-yl)benzyl)-7,9-dihydro-8H-purin-8-one] | < 50
Cc1nnc(-c2ccc(Cn3c(=O)[nH]c4cnc(-c5cccc(F)c5C(C)C)nc43)cc2)o1 [Compound I-189, 2-(3-fluoro-2-isopropylphenyl)-9-(4-(5-methyl-1,3,4-oxadiazol-2-yl)benzyl)-7,9-dihydro-8H-purin-8-one] | < 50
Cc1cc(C)n(-c2ccc([C@@H](C)n3c(=O)[nH]c4cnc(-c5ccccc5C(C)C)nc43)cc2)n1 [Compound I-190, (R)-9-(1-(4-(3,5-dimethyl-1H-pyrazol-1-yl)phenyl)ethyl)-2-(2-isopropylphenyl)-7,9-dihydro-8H-purin-8-one] | < 50
Cc1cc(C)n(-c2ccc([C@H](C)n3c(=O)[nH]c4cnc(-c5ccccc5C(C)C)nc43)cc2)n1 [Compound I-191, (S)-9-(1-(4-(3,5-dimethyl-1H-pyrazol-1-yl)phenyl)ethyl)-2-(2-isopropylphenyl)-7,9-dihydro-8H-purin-8-one] | < 50
